Data published in patent US8143288B2, “Inhibitors of HCV replication” (priority 2005, dated 2012).

System: HCV 1b-377-neo replicon cells
Assay: HCV replicon FRET assay
Format: cell-based
Conditions: Hepatitis C virus, read-out: Activity (EC50)

Row | Compound | EC50 [µM]
1 | CC(C)(C)OC(=O)Nc1ccccc1C(=O)N1CCC[C@H]1C(=O)Nc1ccc(/C=C/c2ccc(NC(=O)[C@@H]3CCCN3C(=O)c3ccccc3NC(=O)OC(C)(C)C)cc2)cc1 [Example 150] | 1 to 10

Same assay, conditions: Hepatitis C virus; HCV replicon; read-out: Activity (EC50)

Row | Compound | EC50 [µM]
2 | CNc1ccccc1C(=O)N1CCC[C@H]1C(=O)Nc1ccc(/C=C/c2ccc(NC(=O)[C@@H]3CCCN3C(=O)c3ccccc3NC)cc2)cc1 [Example 140] | 0.1 to 1
3 | O=C(Nc1ccc(/C=C/c2ccc(NC(=O)[C@@H]3CCCN3C(=O)c3ccccc3NCc3ccccc3)cc2)cc1)[C@@H]1CCCN1C(=O)c1ccccc1NCc1ccccc1 [Example 141] | 1 to 10
4 | COc1ccccc1C(=O)N1CCC[C@H]1C(=O)Nc1ccc(/C=C/c2ccc(NC(=O)[C@@H]3CCCN3C(=O)Cc3cccnc3)cc2)cc1 [Example 142] | 0.1 to 1
5 | CCc1ccccc1C(=O)N1CCC[C@H]1C(=O)Nc1ccc(/C=C/c2ccc(NC(=O)[C@@H]3CCCN3C(=O)Cc3cccnc3)cc2)cc1 [Example 143] | 0.1 to 1
6 | CN(C)c1ccccc1C(=O)N1CCC[C@H]1C(=O)Nc1ccc(/C=C/c2ccc(NC(=O)[C@@H]3CCCN3C(=O)c3ccccc3N(C)C)cc2)cc1 [Example 144] | 1 to 10
7 | COc1ccc(OC)c(C(=O)N2CCC[C@H]2C(=O)Nc2ccc(/C=C/c3ccc(NC(=O)[C@@H]4CCCN4C(=O)c4cc(OC)ccc4OC)cc3)cc2)c1 [Example 145] | 0.1 to 1
8 | COc1cccc(C(=O)N2CCC[C@H]2C(=O)Nc2ccc(/C=C/c3ccc(NC(=O)[C@@H]4CCCN4C(=O)c4cccc(OC)c4OC)cc3)cc2)c1OC [Example 146] | 1 to 10
9 | O=C(Nc1ccc(/C=C/c2ccc(NC(=O)[C@@H]3CCCN3C(=O)c3ccccc3Oc3ccccc3)cc2)cc1)[C@@H]1CCCN1C(=O)c1ccccc1Oc1ccccc1 [Example 147] | 0.1 to 1
10 | O=C(Nc1ccc(/C=C/c2ccc(NC(=O)[C@@H]3CCCN3C(=O)c3ccccc3OCc3ccccc3)cc2)cc1)[C@@H]1CCCN1C(=O)c1ccccc1OCc1ccccc1 [Example 148] | 1 to 10
11 | O=C(Nc1ccc(/C=C/c2ccc(NC(=O)[C@@H]3CCCN3C(=O)c3cccc4cc[nH]c34)cc2)cc1)[C@@H]1CCCN1C(=O)c1cccc2cc[nH]c12 [Example 149] | 0.1 to 1
12 | O=C(Nc1ccc(/C=C/c2ccc(NC(=O)[C@@H]3CCCN3C(=O)c3ccccc3NCc3ccccc3)cc2)cc1)[C@@H]1CCCN1C(=O)Cc1cccnc1 [Example 151] | 0.1 to 1
13 | O=C(Nc1ccc(/C=C/c2ccc(NC(=O)[C@@H]3CCCN3C(=O)c3ccccc3NCc3ccccc3)cc2)cc1)[C@@H]1CCCN1C(=O)CC1CC1 [Example 152] | 0.1 to 1
14 | CC(=O)N1CCC[C@H]1C(=O)Nc1ccc(/C=C/c2ccc(NC(=O)[C@@H]3CCCN3C(=O)c3ccccc3NCc3ccccc3)cc2)cc1 [Example 153] | 1 to 10
15 | O=C(Nc1ccc(/C=C/c2ccc(NC(=O)[C@@H]3CCCN3C(=O)C3CC(=O)N(Cc4cccs4)C3)cc2)cc1)[C@@H]1CCCN1C(=O)C1CC(=O)N(Cc2cccs2)C1 (stereo partly drawn) [Example 154] | 1 to 10
16 | CCn1nc(C)cc1C(=O)N1CCC[C@H]1C(=O)Nc1ccc(/C=C/c2ccc(NC(=O)[C@@H]3CCCN3C(=O)c3cc(C)nn3CC)cc2)cc1 [Example 155] | 0.0001 to 0.09
17 | O=C(Nc1ccc(/C=C/c2ccc(NC(=O)[C@@H]3CCCN3C(=O)C3CC(=O)N(CCc4cccs4)C3)cc2)cc1)[C@@H]1CCCN1C(=O)C1CC(=O)N(CCc2cccs2)C1 (stereo partly drawn) [Example 156] | 1 to 10
18 | CN1CCC[C@H]1C(=O)N1CCC[C@H]1C(=O)Nc1ccc(/C=C/c2ccc(NC(=O)[C@@H]3CCCN3C(=O)[C@@H]3CCCN3C)cc2)cc1 [Example 157] | 1 to 10
19 | CCOc1ccccc1C(=O)N1CCC[C@H]1C(=O)Nc1ccc(/C=C/c2ccc(NC(=O)[C@@H]3CCCN3C(=O)c3ccccc3OCC)cc2)cc1 [Example 158] | 1 to 10
20 | CCCOc1cccnc1C(=O)N1CCC[C@H]1C(=O)Nc1ccc(/C=C/c2ccc(NC(=O)[C@@H]3CCCN3C(=O)c3ncccc3OCCC)cc2)cc1 [Example 159] | 1 to 10
21 | CCOc1ncccc1C(=O)N1CCC[C@H]1C(=O)Nc1ccc(/C=C/c2ccc(NC(=O)[C@@H]3CCCN3C(=O)c3cccnc3OCC)cc2)cc1 [Example 160] | 1 to 10
22 | O=C(Nc1ccc(/C=C/c2ccc(NC(=O)[C@@H]3CCCN3C(=O)c3ccccc3NCc3ccccn3)cc2)cc1)[C@@H]1CCCN1C(=O)c1ccccc1NCc1ccccn1 [Example 161] | 1 to 10
23 | CN(Cc1ccccc1)c1ccccc1C(=O)N1CCC[C@H]1C(=O)Nc1ccc(/C=C/c2ccc(NC(=O)[C@@H]3CCCN3C(=O)c3ccccc3N(C)Cc3ccccc3)cc2)cc1 [Example 162] | 1 to 10
24 | O=C(Nc1ccc(/C=C/c2ccc(NC(=O)[C@@H]3CCCN3C(=O)c3cccc4ccccc34)cc2)cc1)[C@@H]1CCCN1C(=O)c1cccc2ccccc12 [Example 163] | 1 to 10
25 | O=C(Nc1ccc(/C=C/c2ccc(NC(=O)[C@@H]3CCCN3C(=O)[C@@H]3CCCN3Cc3ccccc3)cc2)cc1)[C@@H]1CCCN1C(=O)[C@@H]1CCCN1Cc1ccccc1 [Example 164] | 1 to 10
26 | O=C(Nc1ccc(/C=C/c2ccc(NC(=O)[C@@H]3CCCN3C(=O)c3cccc4c3Cc3ccccc3-4)cc2)cc1)[C@@H]1CCCN1C(=O)c1cccc2c1Cc1ccccc1-2 [Example 165] | 1 to 10

Row | Compound | EC50 [µM]
27 | O=C(Nc1ccc(/C=C/c2ccc(NC(=O)[C@@H]3CCCN3C(=O)c3ccccc3-c3ccccc3)cc2)cc1)[C@@H]1CCCN1C(=O)c1ccccc1-c1ccccc1 [Example 166] | 1 to 10
28 | O=C(Nc1ccc(/C=C/c2ccc(NC(=O)[C@@H]3CCCN3C(=O)Cc3ccccc3OCc3ccccc3)cc2)cc1)[C@@H]1CCCN1C(=O)Cc1ccccc1OCc1ccccc1 [Example 167] | 1 to 10
29 | O=C(Nc1ccc(/C=C/c2ccc(NC(=O)[C@@H]3CCCN3C(=O)Cc3ccccc3Oc3ccccc3)cc2)cc1)[C@@H]1CCCN1C(=O)Cc1ccccc1Oc1ccccc1 [Example 168] | 1 to 10
30 | O=C(Nc1ccc(/C=C/c2ccc(NC(=O)[C@@H]3CCCN3C(=O)c3ccccc3CCc3ccccc3)cc2)cc1)[C@@H]1CCCN1C(=O)c1ccccc1CCc1ccccc1 [Example 169] | 0.1 to 1
31 | O=C(Nc1ccc(/C=C/c2ccc(NC(=O)[C@@H]3CCCN3C(=O)c3ccccc3NCc3ccco3)cc2)cc1)[C@@H]1CCCN1C(=O)c1ccccc1NCc1ccco1 [Example 170] | 0.1 to 1
32 | O=C(Nc1ccc(/C=C/c2ccc(NC(=O)[C@@H]3CCCN3C(=O)c3ccccc3Cc3ccccc3)cc2)cc1)[C@@H]1CCCN1C(=O)c1ccccc1Cc1ccccc1 [Example 171] | 0.1 to 1
33 | O=C(Nc1ccc(/C=C/c2ccc(NC(=O)[C@@H]3CCCN3C(=O)c3ccccc3N3CCCCC3)cc2)cc1)[C@@H]1CCCN1C(=O)c1ccccc1N1CCCCC1 [Example 172] | 1 to 10
34 | CCOc1ccccc1CC(=O)N1CCC[C@H]1C(=O)Nc1ccc(/C=C/c2ccc(NC(=O)[C@@H]3CCCN3C(=O)Cc3ccccc3OCC)cc2)cc1 [Example 173] | 1 to 10
35 | O=C(c1ccccc1)c1cccnc1C(=O)N1CCC[C@H]1C(=O)Nc1ccc(/C=C/c2ccc(NC(=O)[C@@H]3CCCN3C(=O)c3ncccc3C(=O)c3ccccc3)cc2)cc1 [Example 174] | 0.1 to 1
36 | CCCc1c(C(=O)N2CCC[C@H]2C(=O)Nc2ccc(/C=C/c3ccc(NC(=O)[C@@H]4CCCN4C(=O)c4cnn(-c5ccccc5)c4CCC)cc3)cc2)cnn1-c1ccccc1 [Example 175] | 1 to 10
37 | O=C(Nc1ccc(/C=C/c2ccc(NC(=O)[C@@H]3CCCN3C(=O)c3ccccn3)cc2)cc1)[C@@H]1CCCN1C(=O)c1ccccn1 [Example 176] | 1 to 10
38 | Cc1cccnc1C(=O)N1CCC[C@H]1C(=O)Nc1ccc(/C=C/c2ccc(NC(=O)[C@@H]3CCCN3C(=O)c3ncccc3C)cc2)cc1 [Example 177] | 1 to 10
39 | O=C(Nc1ccc(/C=C/c2ccc(NC(=O)[C@@H]3CCCN3C(=O)c3cnccn3)cc2)cc1)[C@@H]1CCCN1C(=O)c1cnccn1 [Example 178] | 1 to 10
40 | O=C(Nc1ccc(/C=C/c2ccc(NC(=O)[C@@H]3CCCN3C(=O)c3nccn3Cc3ccccc3)cc2)cc1)[C@@H]1CCCN1C(=O)c1nccn1Cc1ccccc1 [Example 179] | 1 to 10
41 | O=C(Nc1ccc(/C=C/c2ccc(NC(=O)[C@@H]3CCCN3C(=O)c3nc4ccccc4[nH]3)cc2)cc1)[C@@H]1CCCN1C(=O)c1nc2ccccc2[nH]1 [Example 180] | 1 to 10
42 | O=C(Nc1ccc(/C=C/c2ccc(NC(=O)[C@@H]3CCCN3C(=O)Cc3cccc4ccccc34)cc2)cc1)[C@@H]1CCCN1C(=O)Cc1cccc2ccccc12 [Example 181] | 0.1 to 1
43 | O=C(Nc1ccc(/C=C/c2ccc(NC(=O)[C@@H]3CCCN3C(=O)c3ncccc3OCc3ccccc3)cc2)cc1)[C@@H]1CCCN1C(=O)c1ncccc1OCc1ccccc1 [Example 183] | 1 to 10
44 | O=C(Nc1ccc(/C=C/c2ccc(NC(=O)[C@@H]3CCCN3C(=O)c3ncoc3-c3ccccc3)cc2)cc1)[C@@H]1CCCN1C(=O)c1ncoc1-c1ccccc1 [Example 184] | 0.1 to 1
45 | Cc1nc(-c2cccnc2)sc1C(=O)N1CCC[C@H]1C(=O)Nc1ccc(/C=C/c2ccc(NC(=O)[C@@H]3CCCN3C(=O)c3sc(-c4cccnc4)nc3C)cc2)cc1 [Example 185] | 1 to 10
46 | CC(C)c1sc(Cl)nc1C(=O)N1CCC[C@H]1C(=O)Nc1ccc(/C=C/c2ccc(NC(=O)[C@@H]3CCCN3C(=O)c3nc(Cl)sc3C(C)C)cc2)cc1 [Example 186] | 0.1 to 1
47 | Cc1nc2ccccn2c1C(=O)N1CCC[C@H]1C(=O)Nc1ccc(/C=C/c2ccc(NC(=O)[C@@H]3CCCN3C(=O)c3c(C)nc4ccccn34)cc2)cc1 [Example 187] | 0.0001 to 0.09
48 | CCc1ccnc(C(=O)N2CCC[C@H]2C(=O)Nc2ccc(/C=C/c3ccc(NC(=O)[C@@H]4CCCN4C(=O)c4cc(CC)ccn4)cc3)cc2)c1 [Example 188] | 0.1 to 1
49 | COC(=O)N1c2ccccc2C[C@H]1C(=O)N1CCC[C@H]1C(=O)Nc1ccc(/C=C/c2ccc(NC(=O)[C@@H]3CCCN3C(=O)[C@@H]3Cc4ccccc4N3C(=O)OC)cc2)cc1 [Example 189] | 1 to 10
50 | CC(C)c1scnc1C(=O)N1CCC[C@H]1C(=O)Nc1ccc(/C=C/c2ccc(NC(=O)[C@@H]3CCCN3C(=O)c3ncsc3C(C)C)cc2)cc1 [Example 190] | 0.1 to 1
51 | O=C(Nc1ccc(/C=C/c2ccc(NC(=O)[C@@H]3CCCN3C(=O)c3cccnc3Cl)cc2)cc1)[C@@H]1CCCN1C(=O)c1cccnc1Cl [Example 191] | 1 to 10
